Laboratory results as given in article PMC4215638, “J-147 a Novel Hydrazide Lead Compound to Treat Neurodegeneration: CeeTox™ Safety and Genotoxicity Analysis” (Journal of neurology & neurophysiology, 2013).

Experiments:
[1] = test system: rat hepatoma (H4IIE) cell line; assay: Intracellular glutathione (GSH) levels; type: cell-based; details: H4IIE cells; for Percent Change in Total GSH: decrease indicated by (−), increase by (+)
Experimental: (§1) Rat hepatoma derived H4IIE cells were used as the test system because the cell have a rapid doubling time in culture (i.e. 22 hours). The culture medium used for these cells was Eagles Minimum Essential Medium (MEM) with 10% bovine serum and 10% calf serum (Invitrogen). H4IIE cells were seeded into 96-well plates and allowed to equilibrate for approximately 48 hr before drug assay to allow cells to move into a stable growth phase prior to treatment. Following the equilibration period the cells were exposed to J-147 at concentrations of 1–300 μM. Three to 7 replicates were done for each assay to construct concentration-response curves. Solubility was determined by Nephalometry techniques immediately after dosing and prior to harvesting the cells at 6 or 24 hr. Following the incubation period, cells or their supernatant (culture medium) were analyzed for changes in cell proliferation (cell mass), membrane leakage, mitochondrial function, oxidative stress, and apoptosis. The resultant exposure concentration response curves were graphed and analyzed for determining the concentration that produced a half maximal response or TC50 [28, 30].
Intracellular glutathione levels were determined as described previously. Briefly, the sulfhydryl group of GSH reacts with DTNB (5,5′-dithio-bis-2-nitrobenzoic acid, Ellman’s reagent) and produces a yellow colored 5-thio-2-nitrobenzoic acid (TNB). The mixed disulfide, GSTNB (between GSH and TNB) that is concomitantly produced, is reduced by glutathione reductase to recycle the GSH and produce more TNB. The rate of TNB production is directly proportional to the concentration of GSH in the sample. Measurement of the absorbance of TNB at 405 or 412 nm provides an accurate estimation of GSH in the sample. At the end of the exposure period, the medium was removed from the cells and metaphosphoric acid (MPA) was added to each well. Plates were then shaken for 5 min at room temperature and stored at −20°C until needed. The sample plates were thawed just prior to analysis and centrifuged at > 2000 × g for 2 min. Sample aliquots were removed and transferred to a clean 96-well plate along with appropriate standard curve controls. Sample pH was neutralized just prior to analysis and each well received an aliquot of PBS reaction buffer containing Ellman’s reagent, NADPH, and glutathione reductase. The plates were shaken for 15–30 min at room temperature and glutathione content was determined colorimetrically with a Packard Fusion reader at 415 nm. The assay is based on the concept that all GSH is oxidized to GSSG by DTNB reagent. Two molecules of GSH are required to make one molecule of GSSG (oxidized glutathione). Total GSH was determined by reducing GSSG to 2GSH with glutathione reductase. A standard curve was prepared with oxidized glutathione (GSSG) over a range of concentrations. These concentrations are then converted to glutathione equivalents (GSX) essentially by multiplying the GSSG standard concentrations by 2. The amount of GSX expressed as pmoles/well was determined using the standard curve and regression analysis and are expressed as percent of control;

[2] = test system: Caspase 3 in H4IIE cells; assay: Apoptosis: caspase 3 activity (DEVD-AMC); type: cell-based, rat
Experimental: as §1
Caspase 3 activity was determined using a caspase substrate (DEVD, Asp-Glu-Val-Asp) labeled with a fluorescent molecule, 7-Amino-4-methylcoumarin (AMC). Caspase 3 cleaves the tetrapeptide between D and AMC, thus releasing the fluorogenic green AMC [28]. Following the test article exposure to cells in 96-well plates, medium was aspirated from plates and PBS added to each well. Plates were stored at −80°C to lyse cells and store samples until further analysis. On the day of analysis, plates were removed from freezer and thawed. […] AMC release was measured in a spectrofluorometer at an excitation wavelength of 360 nm and an emission wavelength of 460 nm. Values are expressed as relative fluorescent units (RFU). […]

[3] = Microsomal metabolic stability; type: in vitro ADME; details: 30 minutes at 37°C, rat microsomes
Experimental: Metabolic stability was conducted using pooled microsomes from non-induced male Sprague-Dawley rats. J-147 was incubated for 30 minutes at 37°C at concentrations of 1 μM. Subsequent HPLC analysis using a Waters Alliance 2795 in combination with a Waters Quattro Premier mass spectrometer measured disappearance of the parent molecule. The compounds were run on a Waters X-BridgeC18 (186003021) 50 × 2.1 mm column with 3.5 micron particle packing at a flow rate of 1 ml/min and with the temperature maintained at 50°C. Solvent A was water with 0.1% formic acid. Solvent B was acetonitrile with 0.07% formic acid. The data for 3 replicates are expressed as percent of parent remaining.

[4] = Drug solubility in culture medium (light scattering, Nepheloskan); type: physicochemical; details: complete culture medium with serum; medium with 10% bovine serum and 10% calf serum, 37°C; read-out: Solubility in the culture medium system
Experimental: The final concentration of DMSO in the 0–100 μM solutions was 0.5% and at the 300 μM solution DMSO was 1.5%. The final dosing solutions were prepared in Eagles Minimum Essential Medium. All experiments that used DMSO as the drug solvent also included a DMSO negative control. Negative controls of medium plus DMSO (0.5%) were included with and without cells. A positive control for complete cell death received 1 mM digitonin in medium on the day of dosing.
The samples were evaluated using light scattering with a Nepheloskan instrument. A reading that was greater than or equal to 3 times background was considered the limit of solubility.

[5] = test system: HT22 and primary cell; set-up: method as in PMID 22194796, PMID 23673233; details: HT22 and primary cortical cells, IAA or glutamate toxicity; read-out: EC50 neuroprotection (cell survival); cited from earlier work
[6] = test system: low-density cultured rat cortical neurons; details: previously published; read-out: EC50 neurotrophism; cited from earlier work
[7] = test system: MAOB; set-up: method as in PMID 23673233; details: read-out: EC50 MAOB inhibition; cited from earlier work
[8] = test system: dopamine transporter; set-up: method as in PMID 23673233; details: read-out: EC50 dopamine transporter inhibition; cited from earlier work
[9] = test system: AD mouse; set-up: method as in PMID 23673233; details: cited from earlier work

## CC[C@@]1(O)C(=O)OCc2c1cc1n(c2=O)Cc2cc3ccccc3nc2-1 [Camptothecin, camptothecin]
[1]
  Total GSH TC50: 3900 nM
  Percent Change in Total GSH: −64.5%
[2]; dose part of cell
  Caspase 3 Activity (Index/Dose): dose: 1 (0–200=1)
[2]; index part of cell
  Caspase 3 Activity (Index/Dose): index: 3 (400–600=3)

## COc1cccc(/C=N/N(C(=O)C(F)(F)F)c2ccc(C)cc2C)c1 [J-147, (E)-N-(2,4-Dimethylphenyl)-2,2,2-trifluoro-N′-(3-methoxybenzylidene) acetohydrazide]
[1]
  Total GSH TC50: 217000 nM
  Percent Change in Total GSH: −84.9%
[2]
  Effect on caspase-3 activity: did not affect
[3]; 1 μM
  Metabolism Ranking: High (<45=high)
[3]; male, Sprague-Dawley, pooled microsomes from non-induced rats, percent of parent remaining
  remaining at 0.5 h, 1 μM: 12%
[4]
  solubility: ≥ 300 µM
[5]
  EC50: 60 to 115 nM
[6]
  EC50: 25 nM
[7]
  EC50: 1880 nM
[8]
  EC50: 650 nM
[9]
  Safety and memory impairment after chronic administration: safe and beneficial to reduce memory impairment

## C=C(C)[C@H]1Cc2c(ccc3c2O[C@@H]2COc4cc(OC)c(OC)cc4[C@@H]2C3=O)O1 [Rotenone, rotenone]
[1]
  Total GSH TC50: 300 nM
  Percent Change in Total GSH: −100.0%
